Measured values published in US9993002B2, “1,2,3-thiadiazol-5yl-urea derivatives, use thereof for regulating plant senescence and preparations containing these derivatives” (USTAV EXPERIMENTALNI BOTANIKY AV CR, V.V.I., priority 2014, dated 2018).

Key:
[1] = test system: spring barley; test: Field experiments, spring barley, years 2014 and 2015, foliar spray; format: in vivo
Experimental: (§1) All field experiments were done according to criteria for Good Experimental Practices. Six repetitions (10 m^2 each) were used per one variant. Field trials were not treated by growth regulators and fungicides, except of applied compound 1-furfuryl-[1,2,3]thiadiazol-5-yl-urea. N-furfuryl-N′-1,2,3-thiadiazol-5-yl-urea was applied once at the precise time (extension growth BBCH 50), by foliar spray at a concentration of 25 μM. For each variant at least 50 plants were used to obtain morphology parameters. Statistical evaluation was executed in stat. program PAST v. 2.17c.
All field experiments were done according to criteria for Good Experimental Practices as described in example 17. N-furfuryl-N′-1,2,3-thiadiazol-5-yl-urea was applied once at the precise time (extension growth BBCH 50), by foliar spray at a concentration of 25 μM in a year 2014 and at a concentration of 5 μM in a year 2015. For each variant at least 50 plants were used to obtain morphology parameters. Statistical evaluation was executed in stat. program PAST v. 2.17c.

[2] = test system: winter oilseed rape; test: Field experiment, winter oilseed rape, foliar spray; format: in vivo; conditions: 25 μM foliar spray, BBCH 50
Experimental: as §1

[3] = test system: detached leaves of Triticum aestivum cv. Hereward; test: Membrane lipid peroxidation (MDA, TBA method) in detached wheat leaves in the dark; conditions: four days in the dark
Experimental: A typical symptom associated with senescence as a direct consequence of increased reactive oxygen species is membrane lipid peroxidation which produces malondialdehyde (MDA). Therefore the levels of MDA, a decomposition product of lipid peroxidation, were measured in detached wheat leaves that were exposed to the prepared novel derivatives or BAP for four days in the dark as described in Example 7. MDA levels were measured using a thiobarbituric acid (TBA) method. In detail, 100 mg of fresh plant material was homogenized by high speed shaking in a ball mill (MM301, Retsch, Germany) with 1 mL of 70% methanol. The crude extract was centrifuged at 10,000×g for 5 min, and 100 μL aliquot of supernatant was vortexed with 100 μL of 0.5% (w/v) TBA containing 0.1% (w/v) trichloroacetic acid, and the resulting solution was then incubated for 30 min at 95° C. The samples were quickly cooled on ice and centrifuged for 5 min at 1000 g. The absorbance of supernatant was measured at 532 nm with background subtraction at 600 nm and the amount of MDA-TBA complex was calculated from the coefficient of absorbance 155 mM^−1 cm^−1.

[4] = test system: detached leaf segments of Triticum aestivum cv. Hereward; test: Senescence bioassay on wheat leaf segments in dark conditions; conditions: Triticum aestivum, foliar; dark, 96 h, 25° C., chlorophyll absorbance 665 nm; read-out: Senescence bioassay (IC50)
Experimental: (§2) Seeds of winter wheat, Triticum aestivum cv. Hereward, were washed under running water for 24 hours and then sown on perlite soaked with Hogland's solution. They were placed in the growth chamber at 25° C. with a 16/8 h light period at 50 μmol·m^−2·s^−1. After 7 days, the first leaf was fully developed and the second leaf had started to grow. A tip section of the first leaf, approximately 4 cm long, was removed from 4 seedlings and trimmed slightly to a combined weight of 100 mg. The basal ends of the four leaf tips were placed into the 96-wells plate containing 150 μL of the tested derivative solution each. The entire plate was inserted into a plastic box lined with paper tissues soaked in distilled water to prevent leaf sections from drying out. After 96 h incubation in the dark at 25° C., the leaves were removed and chlorophyll extracted by heating at 80° C. for 10 min in 5 mL of 80% ethanol (v/v). The sample volume was then restored to 5 mL by the addition of 80% ethanol (v/v). The absorbance of the extract was recorded at 665 nm. In addition, chlorophyll extracts from fresh leaves and leaf tips incubated in deionised water were measured. The results are means of five replicates and the entire test was repeated at least twice. […] The compounds to be tested were dissolved in dimethylsulfoxide (DMSO) and the solution brought up to 10^−3 M with distilled water. […] The IC50 values were determined for standard (BAP) and novel tested compounds.

[5] = test system: wheat leaves; test: Ethylene production (defoliating activity) assay; parameters: species or system Triticum aestivum; conditions: 10 μM, 96 h in the dark at 25° C.; control 270 (±15)
Experimental: We investigated the effect of the compounds of the invention on ethylene production in wheat leaves. The leaves were obtained as described in Example 8, placed in 5 mL glass vials and immersed at 10 μM solutions of tested compounds of the invention or TDZ. Distilled water was used as a control treatment. After 96 h incubation in the dark at 25° C., 1 mL of air was taken from the vials and content of ethylene in it was determined using gas chromatography with the flame ionization detector (GC-FID) method described by Fišerová et al. (Fišerová H, Kula E, Klemš M, Reinöhl V (2001) Phytohormones as indicators of the degree of damage in birch (Betula pendula). Biológia 56: 405-409).

[6] = test system: detached leaf segments of Triticum aestivum cv. Hereward; test: Senescence bioassay on wheat leaf segments in dark/light conditions; conditions: foliar, 168 h, dark/light 8/16, 22° C., 7 days, read-out: Senescence bioassay (IC50)
Experimental: as §2
The ability of the novel compounds to retard chlorophyll degradation in detached wheat leaves was tested also in the light conditions. The experiment was performed as described in Example 7 with modifications as follows—the incubation of the leaves with the compounds was done in the dark/light conditions 8/16 (light—100 μmol·m^−2·s^−1) at 22° C. for 7 days. […] The newly prepared substituted 1,2,3-thiadiazol-5-yl urea derivatives of the invention are much stronger anti-senescent compounds in comparison to the BAP in retarding senescence under optimal (dark/light) conditions.

[7] = Toxicity towards human skin fibroblasts (Calcein AM assay); format: cell-based
Experimental: Cytotoxicity of the compounds to human skin fibroblasts (BJ cell line) was determined in a standard Calceinovém AM test. Cells were maintained in plastic tissue culture flasks and grown in Dulbecco's modified Eagle's medium for cell culture (DMEM) at 37° C. in 5% CO2 and 100% humidity. Cells were placed into 96-well microtiter plates (Nunc, Denmark) and after 12 hours pre-incubation, the tested compound was added to a final concentration ranging from […]. Cells were incubated for 72 hours. At the end of incubation period Calcein AM was added in PBS to a final concentration of […]. After 1 hour of incubation fluorescence was measured at 485/538 nm (ex/em wavelength) using Fluoroskan Ascent (Labsystems, Finland). IC50 values (the concentration causing reduction of calcein AM conversion to 50%) were calculated from the curves obtained. All experiments were repeated four times with a maximum deviation of 15%. Due to the limited solubility of substances in water, all the tested compounds were dissolved in DMSO and diluted with water to a final concentration.

[8] = test system: Arabidopsis thaliana (wild-type Col-0); test: Root growth and lateral root formation of Arabidopsis; format: in vivo; conditions: 10 nM, two weeks after transfer
Experimental: To investigate in vivo effect of the new derivatives on the root growth and development, seeds of Arabidopsis thaliana (wild-type Col-0) were surface sterilized and sown on vertical plates on half-strength Murashige-Skoog medium (supplied with 0.1% sucrose and 6 g/L phytagel) containing 10 nM BAP or 10 nM 1,2,3-thiadiazol-5-yl-urea derivative, or 0.01% DMSO (solvent control). After vernalization (4 days in the dark, 4° C.) plates were transferred into the growth chamber (22° C., 16/8 light/dark). Two weeks after transfer, seedlings were photographed and root elongation and lateral root formation was scored using Scion image software (Scion Corp., Frederick, Md., USA). At least 40 plants were measured for each treatment.

| Compound | Seed yield, % of control ([1]; Year 2014, 25 μM foliar spray) | grains per ear, % of control ([1]; Year 2014, 25 μM foliar spray) | Seed yield, % of control ([1]; Year 2015, 5 μM foliar spray) | Seed yield, % of control [2] | WTK, % of control [2] | MDA [3] | IC50 [4] | Ethylene produced [5] | IC50 [6] | CC50 at 72 h [7] | Lateral root number [8] | Primary root lenght [8] |
| --- | --- | --- | --- | --- | --- | --- | --- | --- | --- | --- | --- | --- |
| O=C(NCc1ccco1)Nc1cnns1 [N-furfuryl-N′-1,2,3-thiadiazol-5-yl-urea] | 104.8% | 104.6% | 106.8% | 120.9% | 110% |  |  |  |  |  |  |  |
| O=C(NCCCO)Nc1cnns1 [Compound 2, 1-(3-hydroxy-propyl)-3-[1,2,3]thiadiazol-5-yl-urea] |  |  |  |  |  | 16.4 (±1.6) nmol/g FW | 9.1 µM | 293 (±21) nL/g FW | 0.31 µM | > 100 µM | 12 (±6) | 39 (±9) mm |
